# From patent US20250109139A1, “TRICYCLIC COMPOUND, AND PREPARATION METHOD THEREFOR AND USE THEREOF” (SHANGHAITECH UNIVERSITY, priority 2022, published 2025)
# Read-outs that look alike come from different tables or passages of the source.
# Legend:
# dopamine D2 receptors [1] = target: T1, dopamine D2 receptors (Homo sapiens (Human), UniProt P14416); test: Dopamine D2 receptor β-arrestin2 BRET (recruitment); assay type: cell-based; conditions: for Emax: relative to endogenous ligand dopamine, read-out: β-arrestin2 BRET Emax % ± SEM
# T1 sequence (P14416 whole entry): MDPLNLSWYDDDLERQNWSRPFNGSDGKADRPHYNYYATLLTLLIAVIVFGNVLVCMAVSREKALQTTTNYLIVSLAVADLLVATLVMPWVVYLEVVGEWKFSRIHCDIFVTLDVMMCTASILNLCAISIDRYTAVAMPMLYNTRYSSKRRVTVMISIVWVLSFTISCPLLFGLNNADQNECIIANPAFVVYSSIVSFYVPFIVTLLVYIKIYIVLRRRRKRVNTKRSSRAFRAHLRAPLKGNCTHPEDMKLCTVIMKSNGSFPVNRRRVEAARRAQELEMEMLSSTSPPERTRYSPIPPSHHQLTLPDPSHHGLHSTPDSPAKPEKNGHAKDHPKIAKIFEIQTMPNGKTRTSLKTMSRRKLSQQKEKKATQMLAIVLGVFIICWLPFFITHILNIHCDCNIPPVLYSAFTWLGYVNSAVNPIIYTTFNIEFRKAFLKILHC
# Experimental: (§1) To examine the downstream G-protein signaling pathway mediated by dopamine D2 receptors, on the first day, a 6 cm culture dish was used for transfection with 1 μg of dopamine D2 receptors, 1 μg of Gαi1 containing C-terminal seaweed luciferase (Gαi1-Rluc), 1 μg of Gβ3, 1 μg of Gγ9 containing C-terminal green fluorescent protein (Gγ9-GFP) mixed with 16 μL of PEI. At the same time, in order to examine the downstream β-arrestin2 signaling pathway mediated by dopamine D2 receptors, on the first day, a 6 cm culture dish was used for transfection with […] of dopamine D2 receptors containing C-terminal seaweed luciferase (D2-Rluc), […] of G protein-coupled receptor kinase 2 (GRK2), […] of β-arrestin2 containing N-terminal green fluorescent protein (GFP2-ARRB2) mixed with 14 μL of PEI. The next day, the confluent cells of a 6 cm culture dish were digested and reseeded into a 96-well plate with 100 μL of culture medium added to each well. On the third day, the drugs were added for test. The 96-well plate was taken out from the cell incubator to decant the culture medium, 40 μL of the substrate coelenterazine 400a (final concentration of 5 μM) was added to each well, and then 20 μL of different drugs were added sequentially from left to right to ensure that the final concentration of the drug decreased gradually from bottom to top, with two replicates per treatment. Finally, the prepared samples were loaded on machine for test. The machine readout value reflected the recruitment of β-arrestin2 to the membrane or the dissociation of G protein trimer. The former indicated the degree of activation of the β-arrestin2 signaling pathway downstream of the dopamine D2 receptors, and the latter indicated the degree of activation of the G protein signaling pathway downstream of the dopamine D2 receptors.
# dopamine D2 receptors [2] = target: T1, dopamine D2 receptors; test: Dopamine D2 receptor radioligand competition binding assay ([3H]-Methylspiperone); conditions: [3H]-Methylspiperone 0.3 to 0.5 nM, 293T membranes
# Experimental: The affinity of the compounds of the present disclosure for dopamine D2 receptors was determined by a radioligand competition binding assay.
# In the first step, a cell membrane component containing specific dopamine D2 receptors was prepared. A 10 cm culture dish was used for transfection with […] of dopamine D2 receptors and 40 μL of polyethylenimine (PEI hereafter). […] A vacuum pump was used to suck off the culture medium, 3 mL of lysis buffer was added to each culture dish, and the cells were placed in a 4° C. cold room for 10 minutes. After the cells were detached, the cells were transferred to a 15 mL centrifuge tube and centrifuged at 1500 rpm for 5 minutes at 4° C., and the supernatant was discarded. The cell pellet was transferred to a tissue homogenizer, and 3 mL of lysis buffer was added and fully ground until the cells were broken. Then, cell suspension was equally aliquoted into several EP tubes, centrifuged at 12000 rpm for 5 minutes at 4° C., and the supernatant was discarded. The precipitate was the cell membrane component containing the dopamine D2 receptors.
# First, a standard binding buffer was added to the cell membrane component containing the dopamine D2 receptors, and the cell membrane was disrupted and resuspended with an electric tissue homogenizer. 30 μL of membrane protein suspension was added to each well of a 96-well plate. Then, 30 μL of different drugs were added to the 96-well plate sequentially from bottom to top to ensure that the final drug concentrations were 10^−5 M, 10^−6 M, 10^−7 M, 10^−8 M, 10^−9 M, and 0 M, with two replicates per treatment. Next, 30 μL of [3H]-Methylspiperone was added to each well of the 96-well plate. The plate was incubated at room temperature in the dark for 2 hours. Detection was conducted. The machine readout value reflected the amount of [3H]-Methylspiperone bound on the membrane, and after further data processing, the affinity Ki values of different compounds for the dopamine D2 receptors were obtained.
# dopamine D2 receptors [3] = target: T1, dopamine D2 receptors; test: Dopamine D2 receptor Gαi1 BRET (G protein trimer dissociation); assay type: cell-based; conditions: for Emax: relative to endogenous ligand dopamine, read-out: Gαi1 BRET Emax % ± SEM
# Experimental: as §1
# [4] = unit printed only in Cariprazine cell, read-out: β-arrestin2 BRET EC50
# [5] = unit printed only in Cariprazine cell, read-out: Gαi1 BRET EC50
# [6] = read-out: Gαi1 BRET pEC50 ± SEM (converted)
smiles,measurement,setting,value
"COc1cccc2c3c(oc12)CN(C/C=C/COc1ccc2ccc(=O)[nH]c2c1)CC3 [I-A10, (E)-7-((4-(8-methoxy-3,4-dihydrobenzofuro[2,3-c]pyridin-2(1H)-yl)but-2-en-1-yl)oxy)quinolin-2(1H)-one]",Emax,dopamine D2 receptors [1],107%
same,EC50,dopamine D2 receptors [1]; [4],4.61 nM
same,Affinity pKi ± SEM,dopamine D2 receptors [2],(6.85 ± 0.19)
same,Ki,dopamine D2 receptors [2]; read-out: Affinity Ki,139 nM
same,Gαi1 BRET pEC50 ± SEM,dopamine D2 receptors [3],(7.21 ± 0.12)
same,Emax,dopamine D2 receptors [3],27%
same,EC50,dopamine D2 receptors [3]; [5],61.3 nM
"COc1cccc2c3c(oc12)CN(CC[C@H]1CC[C@H](NS(C)(=O)=O)CC1)CC3 [I-A13, N-(trans-4-(2-(8-methoxy-3,4-dihydrobenzofuro[2,3-c]pyridin-2(1H)-yl)ethyl)cyclohexyl)methanesulfonamide]",EC50,dopamine D2 receptors [1]; read-out: β-arrestin2 BRET pEC50 ± SEM (converted),0.832 nM
same,Emax,dopamine D2 receptors [1],81%
same,EC50,dopamine D2 receptors [1]; [4],4.61 nM
same,Ki,dopamine D2 receptors [2]; read-out: Affinity Ki,1720 nM
same,Ki,dopamine D2 receptors [2]; read-out: Affinity pKi ± SEM (converted),1580 nM
same,EC50,dopamine D2 receptors [3]; [6],38.9 nM
same,Emax,dopamine D2 receptors [3],53%
same,EC50,dopamine D2 receptors [3]; [5],46.6 nM
"CC(C)Oc1cccc2c3c(oc12)CN(CC[C@H]1CC[C@H](NC(=O)N(C)C)CC1)CC3 [I-A19, 3-(trans-4-(2-(8-isopropoxy-3,4-dihydrobenzofuro[2,3-c]pyridin-2(1H)-yl)ethyl)cyclohexyl)-1,1-dimethylurea]",Emax,dopamine D2 receptors [1],21%
same,EC50,dopamine D2 receptors [1]; [4],8.36 nM
same,Affinity pKi ± SEM,dopamine D2 receptors [2],(6.03 ± 0.07)
same,Ki,dopamine D2 receptors [2]; read-out: Affinity Ki,930 nM
same,EC50,dopamine D2 receptors [3]; [6],10.7 nM
same,Emax,dopamine D2 receptors [3],40%
same,EC50,dopamine D2 receptors [3]; [5],10.6 nM
